These results are taken from patent publication US20070032477A1, “Pteridine derivatives useful for making pharmaceutical compositions” (priority 2003, published 2007).

Structures can show the parent of a compound that is named as a salt.

As usually defined, the IC50 is the concentration that inhibits the measured activity by half.

Experiment [1] concerns mixed lymphocyte reaction (PBMC with allogeneic PBMC or Eppstein-Barr Virus-transformed human B cells as stimulator cells). In words: Mixed lymphocyte reaction (MLR) assay. It counts as cell-based. As to conditions: lowest concentration giving 50% suppression of the MLR; [3H]-thymidine. The procedure: Pteridine derivatives were first dissolved (10 mM) in dimethylsulfoxide (hereinafter referred as DMSO) and further diluted in culture medium before use for the following in vitro experiments. The commercially available culture medium consisted of RPMI-1640+10% foetal calf serum (FCS). Some pteridine derivatives described in the previous examples (as indicated in table 1) were tested in the following mixed lymphocyte reaction (MLR) assay.
Peripheral blood mononuclear cells (hereinafter referred as PBMC) were isolated from heparinized peripheral blood by density gradient centrifugation over Lymphoprep (Nycomed, Maorstua, Norway). Allogeneic PBMC or Eppstein-Barr Virus-transformed human B cells [commercially available under the trade name RPM11788 (ATCC name CCL156)] which strongly express B7-1 and B7-2 antigens were used as stimulator cells after irradiation with 30 Gy. MLR was performed in triplicate wells. After 5 days incubation at 37° C., 1 μCi [^3H]-thymidine was added to each cup. After a further 16 hours incubation, cells were harvested and counted in a […]. Inhibition of proliferation by a compound (drug) described in some of the previous examples was counted using the formula: [formula] wherein cpm is the thymidine count per minute. The MLR assay is regarded by those skilled in the art as an in vitro analogue of the transplant rejection since it is based on the recognition of allogeneic major histocompatibility antigens on the stimulator leukocytes, by responding lymphocytes.

For experiment [2], the system named is production of TNF-α by PBMC in response to stimulation by LPS. In words: TNF-α assay. The settings on record: LPS 1 μg/ml, 72 hours, sandwich ELISA. It counts as cell-based, human. The procedure: Peripheral blood mononuclear cells (herein referred as PBMC), in response to stimulation by lipopolysaccharide (hereinafter LPS), a gram-negative bacterial endotoxin, produce various […], in particular human TNF-α. Inhibition of the activation of PBMC can therefore be measured by the level of suppression of the production of TNF-α by PBMC in response to stimulation by LPS.
Such inhibition measurement was performed as follows: PBMC were isolated from heparinized peripheral blood by density gradient centrifugation over Lymphoprep (commercially available from Nycomed, Norway). LPS was then added to the PMBC suspension in complete medium (10^6 cells/ml) at a final concentration of 1 μg/ml. The pteridine derivative to be tested was added at different concentrations (0.1 μM, 1 μM and 10 μM) and the cells were incubated at 37° C. for 72 hours in 5% CO2. The supernatants were collected, then TNF-α concentrations were measured with respectively an anti-TNF-α antibody in a sandwich ELISA (Duo Set ELISA human TNFα, commercially available from R&D Systems, United Kingdom). The calorimetric reading of the ELISA was measured by a Multiskan RC plate reader (commercially available from ThermoLabsystems, Finland) at 450 nm (reference wavelength: 690 nm). Data analysis was performed with Ascent software 2.6. (also from ThermoLabsystems, Finland): a standard curve (recombinant human TNFα) was drawn and the amount (pg/ml) of each sample on the standard curve was determined.
The % suppression of human TNFα production by the pteridine derivatives of the invention (drugs) was calculated using the formula: [formula]

For “2-amino-4-(1-(2-diethylaminoethyl)-piperazino)-6-(3,4-dimethoxyphenyl)pteridine [Example 127]”, the 50% inhibitory concentration (IC50) in experiment [1] was 9100 nM; in experiment [2], 2600 nM.

In turn, “2-amino-4-(1-(2-imidazol-1-yl-ethyl-piperazine)-6-(3,4-dimethoxyphenyl)pteridine [Example 155]” registered a half-inhibitory concentration (IC50) in experiment [1] of 3600 nM.

As for “2-amino-6-(3,4-dimethoxyphenyl)-4-((tetrahydrofurfuryl)-piperazin-1-yl)pteridine [Example 169]”, the IC50 in experiment [1] is 800 nM; in experiment [2], 300 nM.

Turning to `COc1ccc(-c2cnc3nc(N)nc(N4CCN(C(C)=O)CC4)c3n2)cc1OC` [Example 8, 2-amino-4-(N-acetylpiperazin-1-yl)-6-(3,4-dimethoxyphenyl)pteridine], in experiment [2], the half-inhibitory concentration (IC50) came to 400 nM.

On to `CCC(=O)N1CCN(c2nc(N)nc3ncc(-c4ccc(OC)c(OC)c4)nc23)CC1` [Example 9, 2-amino-4-[(N-propionyl)-piperazin-1-yl]-6-(3,4-dimethoxyphenyl)pteridine], for which the IC50 is 500 nM in experiment [1] and 140 nM in experiment [2].

For `COc1ccc(-c2cnc3nc(N)nc(N4CCN(C(=O)c5ccccc5)CC4)c3n2)cc1OC` [Example 11, 2-amino-4-(N-benzoylpiperazin-1-yl)-6-(3,4-dimethoxyphenyl)pteridine], the IC50 in experiment [1] and in experiment [2] was 400 nM in each case.

`COc1ccc(-c2cnc3nc(N)nc(N4CCN(C(=O)c5cc(F)c(Cl)nc5Cl)CC4)c3n2)cc1OC` [Example 40] returned an IC50 in experiment [2] of 700 nM. This counts as sub-micromolar.

In experiment [1], `COCC(=O)N1CCN(c2nc(N)nc3ncc(-c4ccc(OC)c(OC)c4)nc23)CC1` [Example 41, 2-amino-4-[(N-methoxyacetyl)-piperazin-1-yl]-6-(3,4-dimethoxyphenyl)pteridine] yielded a half-inhibitory concentration (IC50) of 500 nM. This counts as sub-micromolar.

In turn, `COc1ccc(-c2cnc3nc(N)nc(N4CCN(C(=O)c5ccoc5)CC4)c3n2)cc1OC` [Example 47, 2-amino-4-[N-(3-furoylcarbonyl)-piperazin-1-yl]-6-(3,4-dimethoxyphenyl)pteridine] had a concentration for half-maximal inhibition (IC50) in experiment [1] of 300 nM.

`CC(=O)N1CCN(c2nc(N)nc3ncc(-c4ccccc4)nc23)CC1` [Example 55, 2-amino-4-(N-acetylpiperazin-1-yl)-6-phenyl-pteridine] had an IC50 in experiment [1] of 5100 nM.

In the case of `CC(=O)N1CCN(c2nc(N)nc3ncc(-c4ccc(Cl)cc4)nc23)CC1` [Example 58, 2-amino-4-(N-acetylpiperazin-1-yl)-6-(4-chloro-phenyl)pteridine], 7600 nM corresponded to half-maximal inhibition in experiment [1] (IC50).

In experiment [2], `COc1ccc(-c2cnc3nc(N)nc(N4CCN(C(=O)[C@@H]5CCCN5)CC4)c3n2)cc1OC` [Example 62, 2-amino-4-[N-(pyrrolidin-2-(S)-yl)carbonyl-piperazin-1-yl]-6-(3,4-dimethoxy-phenyl)pteridine] had an IC50 of 7600 nM.

Turning to `COc1ccc(-c2cnc3nc(N)nc(N4CCN(C(=O)NCc5ccccc5)CC4)c3n2)cc1OC` [Example 104, 2-amino-4-(N-benzylcarbamoyl-piperazin-1-yl)-6-(3,4-dimethoxyphenyl)pteridine], the half-maximal inhibitory concentration (IC50) in experiment [1] was 18 nM. In other words, the double-digit nanomolar range.

On to `COc1ccc(-c2cnc3nc(N)nc(N4CCN(C(=O)[C@@H](N)CC(N)=O)CC4)c3n2)cc1OC` [Example 111, 2-amino-4-[N-[2-(S),4-diamino-4-oxobutanoyl]-piperazin-1-yl]-6-(3,4-dimethoxyphenyl)pteridine], for which, in experiment [1], the IC50 stood at 8800 nM.

As for `COC(=O)c1ccc(C(=O)N2CCN(c3nc(N)nc4ncc(-c5ccc(OC)c(OC)c5)nc34)CC2)cc1` [Example 112, 2-amino-4-[N-[4-(methoxycarbonyl)benzoyl]-piperazin-1-yl]-6-(3,4-dimethoxy-phenyl)pteridine], the IC50 in experiment [2] amounted to 280 nM.

The molecule `COc1ccc(-c2cnc3nc(N)nc(N4CCN(C(=O)CN(C)C)CC4)c3n2)cc1OC` [Example 113, 2-amino-4-[N-[4-(dimethylamino)acetyl]-piperazin-1-yl]-6-(3,4-dimethoxy-phenyl)pteridine] came in with an IC50 in experiment [2] of 3200 nM. Compared with the last molecule, the IC50 is about 11-fold higher.

Turning to `CCN(C(=O)N1CCN(c2nc(N)nc3ncc(-c4ccc(OC)c(OC)c4)nc23)CC1)c1ccccc1` [Example 118, 2-amino-4-(N-ethyl-N-phenyl-carbamoyl-piperazin-1-yl)-6-(3,4-dimethoxyphenyl)pteridine], half-maximal inhibition in experiment [2] (IC50) required 70 nM.

`COCCN1CCN(c2nc(N)nc3ncc(-c4ccc(OC)c(OC)c4)nc23)CC1` [Example 122, 2-amino-4-(1-(2-methoxyethyl)piperazino)-6-(3,4-dimethoxyphenyl)pteridine] had an IC50 in experiment [1] of 800 nM.

Consider `CCOC(=O)CN1CCN(c2nc(N)nc3ncc(-c4ccc(OC)c(OC)c4)nc23)CC1` [Example 135, 2-amino-4-(2-(piperazin-1-yl)-acetic acid ethyl ester)-6-(3,4-dimethoxyphenyl)pteridine], for which the IC50 in experiment [2] turned out to be 270 nM.

As for `COc1ccc(-c2cnc3nc(N)nc(N4CCN(Cc5ccc(F)cc5)CC4)c3n2)cc1OC` [Example 138, 2-amino-4-((4-fluorobenzyl)piperazin-1-yl)-6-(3,4-dimethoxyphenyl)pteridine], the IC50 in experiment [1] amounted to 6000 nM.

In turn, `COc1ccc(-c2cnc3nc(N)nc(N4CCN(Cc5ccc(C)cc5)CC4)c3n2)cc1OC` [Example 140, 2-amino-4-((4-methylbenzyl)piperazin-1-yl)-6-(3,4-dimethoxyphenyl)pteridine] showed an IC50 in experiment [2] of 1300 nM.

The molecule `COc1ccc(-c2cnc3nc(N)nc(N4CCN(Cc5ccc6c(c5)OCO6)CC4)c3n2)cc1OC` [Example 143, 2-amino-4-(piperonyl-piperazin-1-yl)-6-(3,4-dimethoxyphenyl)pteridine] had an IC50 in experiment [2] of 800 nM.

For `COc1ccc(-c2cnc3nc(N)nc(N4CCN(Cc5cccnc5)CC4)c3n2)cc1OC` [Example 156], the IC50 in experiment [2] was determined as 400 nM.

Molecule `COc1ccc(-c2cnc3nc(N)nc(N4CCN(CC5OCCO5)CC4)c3n2)cc1OC` [Example 170, 2-amino-6-(3,4-dimethoxyphenyl)-4-(1,3-dioxolan-2-yl-methylpiperazin-1-yl)pteridine] had an IC50 in experiment [2] of 400 nM.

`COc1ccc(-c2cnc3nc(N)nc(N4CCN(c5cccc(C)c5)CC4)c3n2)cc1OC` [Example 175, 2-amino-6-(3,4-dimethoxyphenyl)-4-((3-methylphenyl)-piperazin-1-yl)pteridine] gave a half-inhibitory concentration (IC50) in experiment [1] of 400 nM.

As to `COc1ccc(-c2cnc3nc(N)nc(N4CCN(CCN(C)C)CC4)c3n2)cc1OC` [Example 181, 2-amino-6-(3,4-dimethoxyphenyl)-4-(4-(2-dimethylaminoethyl)-piperazin-1-yl)-pteridine trihydrochloride salt], 8800 nM corresponded to half-maximal inhibition in experiment [2] (Homo sapiens) (IC50).

`COc1ccc(-c2cnc3nc(N)nc(N4CCN(CCCN(C)C)CC4)c3n2)cc1OC` [Example 182, 2-amino-6-(3,4-dimethoxyphenyl)-4-(4-(3-dimethylaminopropyl)-piperazin-1-yl)pteridine trihydrochloride salt]: the IC50 in experiment [2] (Homo sapiens) came to 4800 nM.

Consider `COc1ccc(-c2cnc3nc(N)nc(N4CCN(C(=O)Nc5ccc(C(F)(F)F)cc5)CC4)c3n2)cc1OC` [Example 194, 2-amino-4-(N-4-trifluoromethyl-phenyl-carbamoyl-piperazin-1-yl)-6-(3,4-dimethoxyphenyl)pteridine], for which 52 nM corresponded to half-maximal inhibition in experiment [1] (IC50).

In turn, `COc1ccc(-c2cnc3nc(N)nc(N4CCN(C(=O)Nc5ccc(Br)cc5)CC4)c3n2)cc1OC` [Example 196, 2-amino-4-(N-4-bromo-phenyl-carbamoyl-piperazin-1-yl)-6-(3,4-dimethoxyphenyl)pteridine] came in with a 50% inhibitory concentration (IC50) in experiment [1] of 100 nM. Compared with the last molecule, the IC50 is about 1.9-fold higher.

Turning to `COc1ccc(-c2cnc3nc(N)nc(N4CCN(C(=O)Nc5cccc(I)c5)CC4)c3n2)cc1OC` [Example 197, 2-amino-4-(N-3-iodo-phenyl-carbamoyl-piperazin-1-yl)-6-(3,4-dimethoxyphenyl)pteridine], in experiment [1], the half-maximal inhibitory concentration (IC50) came out at 40 nM. Compared with the last molecule, the IC50 is about 2.5-fold lower.

Regarding `COc1cc(-c2cnc3nc(N)nc(N4CCN(c5ccc(C)cc5)CC4)c3n2)ccc1OC(C)C` [Example 208], half-maximal inhibition in experiment [1] (IC50) was put at 4400 nM. Against the preceding molecule, the IC50 is about 110-fold higher.
